Experimental data reported in US8101638B2, “6-substituted nicotinamide derivatives as opioid receptor antagonists” (Eli Lilly and Company, priority 2003, dated 2012).

Key:
Type in all cases: biochemical
[1] = molecular target: delta opioid receptor (DOR) (Homo sapiens, UniProt P41143); assay: SPA-based GTP-γ-S binding assay, antagonist mode, delta opioid receptor; conditions: antagonist assay against agonist DPDPE 30 nM; membranes; Kb by Cheng-Prusoff equation
Experimental: (§1) A scintillation proximity assay (SPA) based GTP-γ-S^35 assay format was developed based on previous opioid (Emmerson et al., J. Pharm Exp Ther 278, 1121, 1996; Horng et al., Society for Neuroscience Abstracts, 434.6, 2000) and muscarinic (DeLapp et al., JPET 289, 946, 1999) assay formats. Membranes were resuspended in 20 mM HEPES, 100 mM NaCl, 5 mM MgCl2, 1 mM DTT, and 1 mM EDTA. […] of GTP-γ-[35S], compound, membrane suspension (20 microgram/well), and wheat germ agglutinin coated SPA beads (1 mg/well) were added to clear bottom 96 well assay plates. GDP ([…]) was added to the membrane solution prior to addition to the assay plates. Plates were sealed and incubated for four hours at room temperature then placed in a refrigerator overnight to allow the beads to settle. Signal stability at 4° C. was determined to be >60 hours. Plates were warmed to room temperature and counted in a Wallac Microbeta scintillation counter. For antagonist assays, specific agonists were added at the following concentrations: (MOR) DAMGO 1 micromolar, (DOR) DPDPE 30 nM, (KOR) U69593 300 nM. Kb's were determined by Cheng-Prusoff equation (see Cheng and Prusoff, Biochem. Pharmacol. 22, 3099, 1973).

mu opioid receptor (MOR) = mu opioid receptor (MOR) (Homo sapiens, UniProt P35372); assay: SPA-based GTP-γ-S binding assay, antagonist mode, mu opioid receptor; conditions: antagonist assay against agonist DAMGO 1 micromolar; membranes; Kb by Cheng-Prusoff equation
Experimental: as §1

[2] = molecular target: kappa opioid receptor (KOR) (Homo sapiens, UniProt P41145); assay: SPA-based GTP-γ-S binding assay, antagonist mode, kappa opioid receptor; conditions: antagonist assay against agonist U69593 300 nM; membranes; Kb by Cheng-Prusoff equation
Experimental: as §1

Chain of delta opioid receptor (DOR) (P41143 whole entry): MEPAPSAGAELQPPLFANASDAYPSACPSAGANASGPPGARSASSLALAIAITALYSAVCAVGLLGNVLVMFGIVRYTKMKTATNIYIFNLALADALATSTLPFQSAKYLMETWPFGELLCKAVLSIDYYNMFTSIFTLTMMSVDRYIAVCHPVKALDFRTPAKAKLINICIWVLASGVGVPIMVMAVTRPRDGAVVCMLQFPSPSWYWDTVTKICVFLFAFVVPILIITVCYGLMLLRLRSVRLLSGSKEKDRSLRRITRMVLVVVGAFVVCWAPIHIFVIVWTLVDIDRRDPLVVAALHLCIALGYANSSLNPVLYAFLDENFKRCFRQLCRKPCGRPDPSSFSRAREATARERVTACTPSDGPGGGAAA
Chain of mu opioid receptor (MOR) (P35372 whole entry): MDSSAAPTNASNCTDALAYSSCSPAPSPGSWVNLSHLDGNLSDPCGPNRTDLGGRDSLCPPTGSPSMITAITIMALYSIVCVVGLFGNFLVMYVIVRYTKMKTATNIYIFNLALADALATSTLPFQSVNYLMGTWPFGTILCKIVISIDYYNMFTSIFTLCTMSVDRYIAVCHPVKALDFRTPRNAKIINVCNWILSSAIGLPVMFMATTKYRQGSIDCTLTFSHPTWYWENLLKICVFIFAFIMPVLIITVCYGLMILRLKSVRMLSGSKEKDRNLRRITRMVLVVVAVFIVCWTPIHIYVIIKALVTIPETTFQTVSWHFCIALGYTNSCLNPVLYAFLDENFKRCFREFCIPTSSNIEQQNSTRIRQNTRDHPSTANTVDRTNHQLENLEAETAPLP
Chain of kappa opioid receptor (KOR) (P41145 whole entry): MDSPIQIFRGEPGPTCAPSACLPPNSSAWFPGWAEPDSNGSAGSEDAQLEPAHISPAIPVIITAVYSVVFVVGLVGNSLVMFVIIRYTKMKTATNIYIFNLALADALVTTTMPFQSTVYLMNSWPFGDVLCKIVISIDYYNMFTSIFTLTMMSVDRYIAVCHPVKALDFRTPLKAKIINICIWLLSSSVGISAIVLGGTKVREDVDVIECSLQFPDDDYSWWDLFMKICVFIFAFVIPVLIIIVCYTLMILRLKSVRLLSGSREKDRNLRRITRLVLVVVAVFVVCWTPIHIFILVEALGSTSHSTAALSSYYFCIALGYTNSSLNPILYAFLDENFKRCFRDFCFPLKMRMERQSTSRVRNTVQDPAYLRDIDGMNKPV

Compound	Kb [1]	Kb (mu opioid receptor (MOR))	Kb [2]
CC(C)CCN(C)C1CCc2cc(Oc3ccc(C(N)=O)cn3)ccc21 (stereo not drawn) [Example 20]	13.5 nM	0.73 nM	2.5 nM
CC(C)CCNCC1CCCc2c(Oc3ccc(C(N)=O)cn3)cccc21 (stereo not drawn) [Example 192, 6-{5-[(3-Methyl-butylamino)-methyl]-5,6,7,8-tetrahydro-naphthalen-1-yloxy}-nicotinamide]	9.4 nM	1.1 nM	11.8 nM
NC(=O)c1ccc(Oc2ccc3c(c2)CCC3NCCc2ccc(F)cc2)nc1 (stereo not drawn) [Example 90, 6-{1-[2-(4-Fluoro-phenyl)-ethylamino]-indan-5-yloxy}-nicotinamide]	14.6 nM	0.4 nM	9.2 nM
NC(=O)c1ccc(Oc2cccc3c2CCCC3CNCCC2CCCCC2)nc1 (stereo not drawn) [Example 195, 6-{5-[(2-Cyclohexyl-ethylamino)-methyl]-5,6,7,8-tetrahydro-naphthalen-1-yloxy}-nicotinamide]	7.9 nM	0.5 nM	76 nM
CC(C)(C)CCNCC1CCCc2c(Oc3ccc(C(N)=O)cn3)cccc21 (stereo not drawn) [Example 202, 6-{5-[(3,3-Dimethyl-butylamino)-methyl]-5,6,7,8-tetrahydro-naphthalen-1-yloxy}-nicotinamide]	4.09 nM	0.65 nM	5.79 nM
